Measured values reported in patent US4241184A, “Secondary alcohol dehydrogenase enzyme and use thereof” (priority 1979, dated 1980).
Read-outs that look alike come from different tables or passages of the source.

Legend:
[1] = tested on: secondary alcohol dehydrogenase (SADH); assay: Purified secondary alcohol dehydrogenase activity (formation of reduced NAD); format: biochemical, Pseudomonas sp. ATCC 21439
Protocol: Secondary alcohol dehydrogenase (SADH) from an obligate methanol utilizer, Pseudomonas sp. ATCC 21439 was purified as follows. […] 0.05 M sodium phosphate buffer, pH 7.0 with 0.5 mM dithiothretol (buffer A) and were disrupted sonically (5×1 min.). The crude extract was separated by centrifugation. The crude extract was heat-treated at 50° C. in a water bath for 10 minutes. The resulting precipitate was removed by centrifugation. To the supernatant solution, 25 ml of protamine sulfate solution (2% solution in 0.1 M Tris base) was added dropwise with continuous stirring. After standing for 30 minutes, the extract was centrifuged. The supernatant solution was fractionated with solid ammonium sulfate. The material precipitating between 30 and 60% saturation was collected and was dialized overnight against buffer A. The The dialized material was applied to a DEAE-cellulose column (3 cm by 35 cm) that had been equilibrated with buffer A. The secondary alcohol dehydrogenase activity was eluted in the void volume. This DEAE-cellulose eluate was concentrated by ammonium sulfate fractionation. Material precipitating between 30 and 50% ammonium sulfate saturation was collected by centrifugation and dialyzed overnight against A. This fraction was further washed and filtered through an Amicon unit with XM 50 membrane. The concentrated fraction (6 ml) inside the Amicon unit was applied to an Affi-Gel Blue column (0.8 cm×18 cm) which had been equilibrated with buffer A for affinity chromatography. The column was washed overnight with buffer A (0.18 ml./min.) and then was eluted with buffer A containing 5 mM NAD. Each 1 ml. fraction was collected.
The purified secondary alcohol dehydrogenase enzyme (SADH) may be used directly for converting C3 -C6 secondary alcohols to the corresponding methyl ketones by the procedures described above; however, a source of NAD^+ must be added to the reaction medium. One can determine the NAD-linked secondary alcohol dehydrogenase activity with a fluorescence spectrophotometer (Perkin Elmer, Model MPF 44A) by following the formation of reduced NAD (Ex 340 nm, Em 460 nm). The assay system (3 ml.) will typically contain: sodium phosphate buffer pH 7.0, 150 μmol; NAD 1.0 μmol; a given amount of enzyme preparation; and 20 μmol secondary alcohol. The reaction is started by the addition of secondary alcohol. One unit of SADH enzyme activity represents the reduction of one nmole NAD per minute.
The effect of metal-chelating agents and thioreagents on the activity of the purified SADH enzyme were studied. […] The possibility of ethanol or n-propanol as an inhibitor was studied.

[2] = tested on: P(40) particulate fraction of Methylosinus sp. (CRL-15, NRRL B-11,202); assay: Effect of metals on propylene epoxidation and methane hydroxylation by P(40) fraction; format: biochemical; conditions: metal 10^-3 M; for Methane-Oxidizing Activity in presence of metal: control 4.0; for Propylene-Oxidizing Activity in presence of metal: control […]
Protocol: The oxidation of methane and propylene by particulate [(P)40 and(P)80] fractions and soluble [S(80)] fraction was measured at 30° C. by estimating the production of methanol and propylene oxide, respectively. The reaction mixtures contained in 1.0 ml: 150 mM potassium phosphate buffer, pH 7.0 containing 5 mM MgCl2, 0.6 ml; 10 μmoles NADH, and cellular fraction.
Reaction mixtures were contained in 10 ml vials at 4° C. Vials were sealed with rubber caps. The gaseous phase in the vials was removed using vacuum and then was replaced with a gas mixture of methane or propylene and oxygen at a 1:1, v/v ratio. Oxidation of other gaseous n-alkanes and n-alkenes was examined as described above. For liquid substrates, 10 μl of substrate was used directly.
Since the methane mono-oxygenase from methane-utilizing bacteria is a copper or iron-containing protein (Tonge et al., J. Biochem., 161: 333-344 (1977)), we have examined the effect of copper and iron salts on the oxidation of methane and propylene by the P(40) particulate fraction of Methylosinus sp. (CRL-15, NRRL B-11,202). The rate of hydroxylation of methane to methanol and epoxidation of propylene to propylene oxide was increased twofold in the presence of added copper salts (Table XII).

[3] = tested on: secondary alcohol dehydrogenase; assay: Purified yeast secondary alcohol dehydrogenase: substrates, electron acceptors, inhibitors, stoichiometry; format: biochemical, Pichia sp. NRRL Y-11,328
Protocol: Large scale cultures of Pichia sp. NRRL Y-11,328 were grown with aeration at 30° C. in a 14-liter New Brunswick f fermentor in a mineral salt medium containing methanol (0.4%, v/v) as the sole carbon source. The cells (200 g., wet weight) were suspended in […] sodium phosphate buffer, pH 7.0, containing 1 mM dithiothreitol (buffer A), and crude extracts were prepared as described previously. To the crude extracts, 18 ml. of protamine sulfate solution [2% solution in 0.1 M tris (hydroxymethyl) aminomethane (tris) base] was added dropwise with continuous stirring. After standing for 30 min., the extracts were centrifuged at 20,000×g. for 60 min. The supernatant solution was fractionated with solid ammonium sulfate. Extracts were brought to 50% of saturation with respect to ammonium sulfate by addition of 313 g. of the salt per liter of extract. Precipitated proteins was removed by centrifugation, and 137 g. of ammonium sulfate was added per liter of the supernatant liquid to bring it to 70% of saturation. Material precipitating between 50 and 70% of saturation was collected by centrifugation and dissolved in buffer A. This preparation was dialyzed overnight against buffer A, and the dialyzed material was applied to a DEAE-cellulose column (5×40 cm) that had been equilibrated with buffer A. The sample was washed with 200 ml. of buffer A and eluted with 2 liters of buffer A that contained NaCl in a linear gradient running from a concentration of 0 to 0.5 M. Fractions of 15 ml. were collected. Fractions containing secondary alcohol dehydrogenase activity were pooled and were termed DEAE-cellulose eluate. The DEAE-cellulose eluate was concentrated by ammonium sulfate fractionation.
Secondary alcohol dehydrogenase activity was measured spectrophotometrically at 340 nm with a NAD^+ as an electron acceptor. The reaction mixture, in a total 3.0 ml., contained 50 mM phosphate buffer, pH 8.0, 5μ moles NAD^+, crude extracts, and subtrate. The reactions were started by addition of 100 μl of 0.1 M substrate and the rate of NAD^+ reduction was measured. Protein concentration was determined by the method of Lowry et al.
The substrate specificity of the purified secondary alcohol dehydrogenase was examined spectrophotometrically.

[4] = tested on: P(40) particulate fraction of Methylosinus sp. (CRL-15, NRRL B-11,202); assay: Oxidation of n-alkenes and n-alkanes by P(40) particulate fraction; format: biochemical; conditions: substrate oxidized to its epoxide or alcohol, 30° C.
[5] = tested on: Methylobacterium organophilum (CRL 26, NRRL B-11,222); assay: Effect of inhibitors on epoxidation of propylene and hydroxylation of methane, cell-containing enzyme preparation; format: cell-based; conditions: NRRLB11, 1 h
[6] = tested on: Methylosinus trichosporium OB3b (NRRL B-11,196); assay: as above; format: cell-based; conditions: NRRLB11, 1 h
[7] = tested on: Methylococcus capsulatus (CRL Ml, NRRL B-11,219); assay: as above; format: cell-based; conditions: Methylococcus capsulatus, NRRLB11, 1 h
[8] = purified SADH, each inhibitor 1 mM, measured spectrofluorometrically
[9] = examined spectrophotometrically
[10] = read-out: % Inhibition, Epoxidation
[11] = read-out: % Inhibition, Hydroxylation

## O=C(O)CCC(=O)O [succinic acid]
[1]; 2-butanol = 100%
  relative percent rate of oxidation by SADH: not oxidized

## CCN1C(=O)C=CC1=O [N-ethylmalemide]
[1]; [8]
  % inhibition of SADH activity: 6%
[1]; purified SADH, each inhibitor 1 mM, measured spectrofluorometrically, listed as N-ethylmaleimide
  % inhibition of SADH activity: not inhibited

## CC(O)C(C)O (stereo not drawn) [butane 2,3-diol]
[1]
  substrate specificity of purified SADH: lower rate
[1]; 2-butanol = 100%
  relative percent rate of oxidation by SADH: 2.5%

## [Cl][Fe]([Cl])[Cl] [Ferric Chloride]
[2]
  Methane-Oxidizing Activity in presence of metal: 4.8 μmoles/hr/mg protein
  Propylene-Oxidizing Activity in presence of metal: 5.8 μmoles/hr/mg protein

## OC1CCCCC1 [cyclohexanol]
[1]
  substrate specificity of purified SADH: lower rate
[1]; 2-butanol = 100%
  relative percent rate of oxidation by SADH: 4%

## CCCC(C)O (stereo not drawn) [2-pentanol]
[1]
  substrate specificity of purified SADH: lower rate
[1]; 2-butanol = 100%
  relative percent rate of oxidation by SADH: 5%
[3]; [9]
  oxidation by the purified secondary alcohol dehydrogenase: catalyzed the oxidation

## CC(O)CO (stereo not drawn) [1,2-propandiol]
[3]; [9]
  oxidation by the purified secondary alcohol dehydrogenase: not oxidized

## CO [methanol]
[3]; [9]
  oxidation by the purified secondary alcohol dehydrogenase: not oxidized

## CC(O)CCO (stereo not drawn) [butane 1,3-diol]
[1]
  substrate specificity of purified SADH: lower rate
[1]; 2-butanol = 100%
  relative percent rate of oxidation by SADH: 2%
[3]; [9]
  oxidation by the purified secondary alcohol dehydrogenase: not oxidized

## CCCCC(C)O (stereo not drawn) [2-hexanol]
[1]
  substrate specificity of purified SADH: lower rate
[1]; 2-butanol = 100%
  relative percent rate of oxidation by SADH: 2%
[3]; [9]
  oxidation by the purified secondary alcohol dehydrogenase: catalyzed the oxidation

## O=C(O)c1cc(SSc2ccc([N+](=O)[O-])c(C(=O)O)c2)ccc1[N+](=O)[O-] [5,5'-dithiobis(2-nitrobenzoic acid)]
[1]; [8]
  % inhibition of SADH activity: 100%
[1]; purified SADH, each inhibitor 1 mM, measured spectrofluorometrically, listed as 5,5'-dithiobis (2-nitrobenzoic acid)
  % inhibition of SADH activity: inhibited

## cytochrome c
[3]
  electron acceptor for the purified enzyme: could not act as electron carrier

## CC=O [acetaldehyde]
[1]
  substrate specificity of purified SADH: lower rate
[1]; 2-butanol = 100%
  relative percent rate of oxidation by SADH: 4%

## CCCCCO [pentan-1-ol]
[3]; [9]
  oxidation by the purified secondary alcohol dehydrogenase: not oxidized

## [Ni+2] [nickel]
[1]; [8]
  % inhibition of SADH activity: 20%

## CCC(O)CO (stereo not drawn) [butane 1,2-diol]
[1]; 2-butanol = 100%
  relative percent rate of oxidation by SADH: not oxidized
[3]; [9]
  oxidation by the purified secondary alcohol dehydrogenase: not oxidized

## CC [Ethane]
[4]
  Rate of Product Formation: 3.2 μ moles/hr/mg of protein

## c1c[nH]cn1 [Imidazole]
[5]; [10]
  inhibition at 1000 µM: 100%
[5]; [11]
  inhibition at 1000 µM: 100%
[6]; [10]
  inhibition at 1000 µM: 95%
[6]; [11]
  inhibition at 1000 µM: 90%
[7]; [10]
  inhibition at 1000 µM: 95%
[7]; [11]
  inhibition at 1000 µM: 95%
[3]
  inhibition of secondary alcohol dehydrogenase activity: strongly inhibited

## CCCO [n-propanol]
[1]
  % inhibition of SADH activity: did not inhibit
[3]
  oxidation by the purified secondary alcohol dehydrogenase: not oxidized

## CCCCO [butan-1-ol]
[3]
  oxidation by the purified secondary alcohol dehydrogenase: not oxidized

## O=S(=O)([O-])[O-].[Cu+2] [Cupric Sulfate]
[2]
  Methane-Oxidizing Activity in presence of metal: 7.1 μmoles/hr/mg protein
  Propylene-Oxidizing Activity in presence of metal: 9.0 μmoles/hr/mg protein
[3]
  inhibition of secondary alcohol dehydrogenase activity: inhibited

## CC(C)O [2-propanol]
[1]
  substrate specificity of purified SADH: highest
[1]; 2-butanol = 100%
  relative percent rate of oxidation by SADH: 85%
[3]
  NAD^+ Reduced: 5.4 µmol
  Product formed: 5.5 µmol
[3]; [9]
  oxidation by the purified secondary alcohol dehydrogenase: catalyzed the oxidation

## CC(C)CO [isobutanol]
[1]; 2-butanol = 100%
  relative percent rate of oxidation by SADH: not oxidized

## O=C(O)c1cc[c]([Hg+])cc1.[OH-] [p-hydroxymercuribenzoate]
[1]; [8]
  % inhibition of SADH activity: 100%
[3]
  inhibition of secondary alcohol dehydrogenase activity: strongly inhibited

## N#C[S][Hg][S]C#N [mercuric thiocyanate]
[3]
  inhibition of secondary alcohol dehydrogenase activity: inhibited

## C=O [formaldehyde]
[1]
  relative percent rate of oxidation by SADH: not oxidized

## [Co+2] [Co^++]
[1]; [8]
  % inhibition of SADH activity: 0%

## [Cl][Cu] [Cuprous Chloride]
[2]
  Methane-Oxidizing Activity in presence of metal: 7.2 μmoles/hr/mg protein
  Propylene-Oxidizing Activity in presence of metal: 9.2 μmoles/hr/mg protein

## [Cu+2] [cupric]
[1]; [8]
  % inhibition of SADH activity: 25%

## [Mn+2] [Mn^++]
[1]; [8]
  % inhibition of SADH activity: 0%

## [Fe+2] [ferrous]
[1]; [8]
  % inhibition of SADH activity: 50%

## C=C [Ethylene]
[4]
  Rate of Product Formation: 1.27 μ moles/hr/mg of protein

## CCCCCC(C)O (stereo not drawn) [2-Heptanol]
[3]; [9]
  oxidation by the purified secondary alcohol dehydrogenase: not oxidized

## Ferrous Sulfate
[2]
  Methane-Oxidizing Activity in presence of metal: 4.8 μmoles/hr/mg protein
  Propylene-Oxidizing Activity in presence of metal: 5.9 μmoles/hr/mg protein

## C=CCC [1-Butene]
[4]
  Rate of Product Formation: 2.18 μ moles/hr/mg of protein

## O=Cc1ccccc1 [benzaldehyde]
[1]; 2-butanol = 100%
  relative percent rate of oxidation by SADH: not oxidized

## C=CC=C [Butadiene]
[4]
  Rate of Product Formation: 0.63 μ moles/hr/mg of protein

## [Zn+2] [Zn^++]
[1]; [8]
  % inhibition of SADH activity: 0%
[1]; purified SADH, each inhibitor 1 mM, measured spectrofluorometrically, listed as zinc
  % inhibition of SADH activity: did not stimulate

## O=[N+]([O-])[O-].[Ag+] [silver nitrate]
[3]
  inhibition of secondary alcohol dehydrogenase activity: inhibited

## CCCCCCC(C)O (stereo not drawn) [2-octanol]
[3]; [9]
  oxidation by the purified secondary alcohol dehydrogenase: not oxidized

## [Mg+2] [Mg^++]
[1]; [8]
  % inhibition of SADH activity: 0%

## Oc1ccccc1 [phenol]
[1]
  relative percent rate of oxidation by SADH: not oxidized

## [Fe+3] [ferric]
[1]; [8]
  % inhibition of SADH activity: 35%

## CCO [ethanol]
[1]
  % inhibition of SADH activity: did not inhibit
[3]
  oxidation by the purified secondary alcohol dehydrogenase: not oxidized
